Several values for one entry are separate records, joined by “and”; a condition that tells them apart may be missing. Equal entries are not always repeated. Where two headings read alike, the source gives them in different places.
Columns and labels:
[1] = test system: normal lymphocytes; assay: Human cell line experiments, AlamarBlue, normal lymphocytes; type: cell-based; conditions: for EC50: Hs normal lymphocytes, 72 hours, read-out: EC50 against normal lymphocytes; for cytotoxicity against cultured human lymphocytes: at 100 μM
Description: page 4: […] 418one in 50% (v/v) sulfuric acid) and one volume of 2,3-Butanedione monoxime (80 mM 2,3- 419Butanedione monoxime in 5% (v/v) acetic acid). After plates were sealed with transparent sealing 420tape to prevent evaporation and incubated overnight in the dark place at room temperature. After 421incubation, the plates were heated at 95 °C for 15 min in dark place, and kept for 30 min before 422measuring at 466 nm suing a Synergy H1 Hybrid Reader (BioTek). Analyses were performed using 423Microsoft Excel and Graph Pad Prism. 424HsATC activity assay. The enzymatic assay was performed as described herein above for 425enzymatic assay of PfATC with minor modifications. Briefly, the reaction was carried out at room 426temperature in a total volume of 150 μl of 10 mM L-aspartate and 5 mM carbamoyl phosphate 427saturated substrate solution in 50 mM Tris-Acetate buffer pH 8.3. hsATC was pre-incubated with 428inhibitor and L-Asp for 10 min at room temperature on a shaker. The reaction was initiated by 429adding CP and stopped after 5 min with […] color mix. Then the plate was covered by sealing 430tape and kept in dark place at room temperature and then heated to 95 °C for 15min in dark and kept 431the plate in the dark for another 30 min before measuring the absorbance at 466 nm suing a Synergy 432H1 Hybrid Reader (BioTek). Analyses were performed using Microsoft Excel and Graph Pad 433Prism. 434Human cell line experiments. The cell lines A375 (melanoma), H1299 (lungca), MCF7 435(breastca), REC-1 (mantel cell lymphoma, SUDHL2 (diffuse large B-cell lymphoma) and normal 436lymphocytes (obtained from tonsils) were cultured in RPMI 1640 (Lonza BioWhittaker, 437Walkersville, MD, USA) with 10% fetal bovine serum (FBS; HyClone Thermo Scientific, 438Waltham, MA, USA). Cells were plated in 96-wells plates and incubated with increasing 439concentrations of compounds for 72 hours as indicated. All experiments were performed in page 5: 440triplicate. AlamarBlue (Thermo Fisher Scientific, Waltham, MA USA) was added eight hours prior 441to read-out (extinction 560nm, emission 590nm). […] A freshly prepared protein 443solution at a concentration of 10 mg ml -1 and immediately used in crystallization trials. The 444screening for crystallization conditions for PfATC was performed using a high-through 445crystallization robot (Gryphon, Art Robbins) against commercially available sparse-matrix 446screening kits (JCSG plus and PACT premier; Molecular Dimensions Ltd.). All experiments were 447performed at 293 K using the sitting drop vapor diffusion technique in 96 well MRC2 plates 448(Molecular Dimensions Ltd.). Equal volumes (0.2 μL) of protein solution and crystallization 449reagent were equilibrated against 50 μL of reservoir solution. Medium size single crystals appeared 450overnight in various conditions containing PEG3350/4000. The apo-crystals were soaked for 10 […] 452the solution plus 20% glycerol, flash-cooled and stored in liquid nitrogen. The flashed cooled 453crystals was shipped to […], Deutsches Elektronen-Synchrotron DESY Beamline P11. […] The purified PfATC […] 457stocks in 100% DMSO) at a molar ratio of 1:5. The mixture was incubated at 20 °C for 40 minutes, 458then centrifugation was performed to remove the precipitate. The supernatant was immediately 459used in crystallization trials. The crystallization reagent were the same as apo crystallization […] The crystals were flash- 461cooled and stored in liquid nitrogen, and was shipped to […], Deutsches Elektronen- 462Synchrotron DESY Beamline P11.

[2] = test system: P. falciparum 3D7; assay: Growth-inhibition assay of P. falciparum (SYBR Green I); type: cell-based, Plasmodium falciparum; conditions: P. falciparum 3D7, 96 h, read-out: EC50 against blood stage 3D7 cultures
Description: 488Cell culture and growth-inhibition assay of P. falciparum. P. falciparum 3D7 parasites
489(Wellcome Trust Dundee) were maintained in continuous culture at 37 °C and an atmosphere
490consisting of 90% N 2, 5% O2, and 5% CO2 as described previously 30 with modifications.31
491Parasites were maintained in 25 mM 4-(2-hydroxyethyl)-1-piperazineethanesulfonic acid (HEPES)
492and 11.9 mM sodium bicarbonate buffered RPMI 1640 medium supplemented with D-glucose
493(11 mM), hypoxanthine, AlbuMAX-I (0.5% w/v), and 10 µg/mL gentamicin. 0+ blood was
494provided by “Hospital Novo Atibaia” (Brazil) in agreement with the ethics committee at ICB-USP.
495Compounds were tested for their inhibitory effect against P. falciparum 3D7 conducting SYBR
496Green I (Invitrogen) drug assays as reported. 32, 33 Briefly, two-fold serial dilutions of compounds
497were prepared in 96-well plates starting from 100 and 20 µM in technical triplicate and incubated
498for 96 h under normal growth conditions using an initial parasitemia of 0.5% and a hematocrit of
4992% in a volume of 100 µL per well. Parasite proliferation was measured by quantifying DNA via
500SYBR Green I emitted fluorescence in the wells after addition of 100 µL lysis buffer supplemented
501with SYBR Green I (0.02% v/v) and incubation for 1 h at room temperature in the dark.
502Fluorescence was quantified using a CLARIOstar plate reader (BMG Labtech, Germany) at
503excitation and emission wavelength bands of 485 (± 9) and 530 (± 12) nm, respectively. Focal and
504gain adjustment was performed using the negative controls (highest expected fluorescence signal).
505Data was acquired via the CLARIOstar (V5.20) and MARS software, manually normalized, and
506plotted using the nonlinear regression curve fit implemented in GraphPad Prism as described below
507in more detail. Non-treated parasites, highest solvent concentration on parasites, and highest drug
508concentration in medium were used as controls for maximal growth, solvent control, and native
509drug fluorescence, respectively.
511Nonlinear regression fit and analysis of dose-response drug assays. Nonlinear regression as
512implemented in GraphPad Prism 8.4.3 (log(inhibitor) vs. response – Variable slope (four
513parameters)) was used to fit the measured data to interpolate the IC 50 value from the curve. No
514specific model was applied. Data was pre-processed by min-max-scaling according to the
517where y is the fluorescence signal in each well, y minimum the background fluorescence, and ymaximum
518the highest measured fluorescence signal in the untreated wells. Drug concentrations (in µM) were
519transformed to the log(10)of the values. Means of each independent experiment were plotted as
520individual values, and the SD of the mean from the means shown as error bars. The test for
521homoscedasticity was performed to confirm if no weighting of values was appropriate.

SMILES	EC50 [1]	EC50 [2]	cytotoxicity against cultured human lymphocytes [1]	EC50 ([1]; Homo sapiens, Lymphocyte)	EC50 ([2]; Plasmodium falciparum, 3D7, 96 h)
CC(C)(C)OC(=O)Nc1sc(-c2ccccc2)cc1C(=O)NCCc1ccc(O)cc1 [BDA-11]	757 µM	3400 nM and 3370 nM	–	–	–
CC(C)(C)OC(=O)Nc1sc(-c2ccccc2)cc1C(=O)NCCO [BDA-14]	> 1000 µM	42500 nM	no cytotoxicity	–	–
CC(C)(C)OC(=O)Nc1sc(-c2ccccc2)cc1C(=O)NCCc1ccccc1 [BDA-04]	–	2430 nM	no cytotoxicity	~1000 µM	2400 nM
COc1cccc(CCNC(=O)c2cc(-c3ccccc3)sc2NC(=O)OC(C)(C)C)c1 [BDA-24]	911 µM	2000 nM and 2030 nM	–	–	–
